# From patent US8404646B2, “Methods for preventing or treating mitochondrial permeability transition” (Cornell Research Foundation, Inc., priority 2003, dated 2013)
# Non-standard residues stand in square brackets, D forms with d. Residues, ends and D or L forms follow the SMILES beside them. *: point of attachment. Dansyl = CN(C)c1cccc2c(S(=O)(=O)*)cccc12; Dmt = Cc1cc(O)cc(C)c1C[C@H](N)C(=O)O; Dap = NC[C@H](N)C(=O)O
# What was measured:
# [1] = Body weight and heart rate during the infarction/reperfusion experiment; format: in vivo, rat
# Experimental: Adult male […] rats (F344 strain, National Institute of Aging, maintained by Harian Sprague-Dawley Inc.), weighting between 285 and 425 gm, were used. Twenty-four rats (n=8/group) were randomly assigned to one of three groups: (1) Control group was given 0.4 ml of saline as an intra-peritoneal (IP) injection 30 minutes before the ligation of left anterior descending coronary artery, followed by same IP dose injection 5 minutes before reperfusion; (2) SS-31 group was treated with SS-31 (3 mg/kg dissolved in 0.4 ml of saline) as an IP injection 30 minutes before the ligation followed by same IP dose injection as maintenance 5 minutes before reperfusion; and (3) SS-20 group was treated with SS-20 (3 mg/kg dissolved in 0.4 ml of saline) as an IP injection 30 minutes before the ligation followed by same dose IP injection as maintenance just 5 minutes before reperfusion. Also, Sham-operated rats (n=3) were used to account for possible effects related to the surgical protocol. All procedures were performed in a blinded manner, with the groups assigned letters and their identities unknown to the operators. Likewise, the two independent investigators analyzing the data were blind to the treatment assignments.
# After anesthesia with ketamine (90 mg/kg IP) and xylazine (4 mg/kg IP), a tracheotomy was performed, and the rat was intubated with polyethylene tube and ventilated (Harvard Rodent Ventilator model 683) with room air and a tidal volume of 0.65 ml/100 gm of body weight at 90 breaths per minute. Body temperature was maintained at 37° C. by using a heated operating table. The internal jugular vein was surgically exposed and a polyethylene tube was inserted for Evans blue dye solution injection. Peripheral limb electrodes were inserted subcutaneously and electrocardiogram was monitored throughout the procedure.
# An ECG was recorded continuously from a standard lead II (AC AMP 700) inserted into the limbs of all rats. The ECG was printed at 25 mm/second. The cardiac arrhythmias were monitored and assessed in accordance with the Lambeth Convention. The assessment was performed in a blinded manner using the original paper recordings. A validated score was used to quantify the severity of cardiac arrhythmias. The score consisted of six types: 0, no ventricular extrasystoles (VES), ventricular tachycardia (VT) or ventricular fibrillation (VF); 1=VES; 2=one to five episodes of VT (more than four coupled VES); 3=more than five episodes of VT and/or one VF; 4=two to five episodes of VF; 5=more than five episodes of VF.
# All values are expressed as mean±standard error of mean (S.E.M.). Statistical analyses were performed using SPSS version 10. Differences among groups in body weight, heart rate, arrhythmia, area at risk as a percentage of the left ventricle, and area of infarction as a percentage of the area at risk were analyzed using ANOVA. If significant differences were detected, comparisons between the control group and the 2 treatment groups were conducted using the Mann-Whitney U-test. A two-tailed p<0.05 was regarded as significant.
# Caco-2 cells = test: Confocal laser scanning microscopy of fluorescent analogs (uptake, subcellular distribution); format: cell-based, human; conditions: for subcellular distribution of fluorescence: Caco-2, CLSM
# Experimental: The uptake of [Dmt^1]DALDA into Caco-2 cells was confirmed by confocal laser scanning microscopy (CLSM) using a fluorescent analog of [Dmt^1]DALDA (Dmt-D-Arg-Phe-dnsDap-NH2; where dnsDap=β-dansyl-1-α,β-diaminopropionic acid). Cells were grown as described above and were plated on (35 mm) glass bottom dishes (MatTek Corp., Ashland, Mass.) for 2 days. The medium was then removed and cells were incubated with 1 ml of HBSS containing 0.1 μM to 1.0 μM of the fluorescent peptide analog at 37° C. for 1 h. Cells were then washed three times with ice-cold HBSS and covered with 200 μl of PBS, and microscopy was performed within 10 min at room temperature using a Nikon confocal laser scanning microscope with a C-Apochromat 63×/1.2 W corr objective. Excitation was performed at 340 nm by means of a UV laser, and emission was measured at 520 nm. For optical sectioning in z-direction, 5-10 frames with 2.0 μm were made.
# To examine the subcellular distribution of [Dmt^1]DALDA, the fluorescent analog, [Dmt^1, AtnDap^4]DALDA (Dmt-D-Arg-Phe-atnDap-NH2; where atn=β-anthraniloyl-1-α,β-diamino-propionic acid), was prepared. The analog contained β-anthraniloyl-1-α,β-diaminopropionic acid in place of the lysine reside at position 4. The cells were grown as described in Example 1 and were plated on (35 mm) glass bottom dishes (MatTek Corp., Ashland, Mass.) for 2 days. The medium was then removed and cells were incubated with 1 ml of HBSS containing 0.1 μM of [Dmt^1, AtnDap^4]DALDA at 37° C. for 15 min to 1 h.
# Cells were also incubated with tetramethylrhodamine methyl ester (TMRM, 25 nM), a dye for staining mitochondria, for 15 min at 37° C. Cells were then washed three times with ice-cold HBSS and covered with 200 μl of PBS, and microscopy was performed within 10 min at room temperature using a Nikon confocal laser scanning microscope with a C-Apochromat 63×/1.2 W corr objective.
# For [Dmt^1, AtnDap^4]DALDA, excitation was performed at 350 nm by means of a UV laser, and emission was measured at 520 nm. For TMRM, excitation was performed at 536 nm, and emission was measured at 560 nm.
# [2] = test system: isolated mouse liver mitochondria; test: Uptake into isolated mitochondria (fluorescence quenching, radioactivity in pellet); format: in vitro ADME
# Experimental: (FIG. 1A) Mitochondrial uptake of SS-19 was determined using fluorescence spectrophotometry (ex/em=320/420 nm). […] Pretreatment of mitochondria with FCCP (1.5 μM) reduced quenching by <20% (black line). […] Uptake was stopped by centrifugation (16000×g) for 5 min at 4° C., and radioactivity determined in the pellet. […] Data are shown as mean±s.e.; n=3. *, P<0.05 by Student's t-test. […] Black line, TMRM; red line, SS-19.
# To isolate mitochondria from mouse liver, mice were sacrificed by decapitation. The liver was removed and rapidly placed into chilled liver homogenization medium. The liver was finely minced using scissors and then homogenized by hand using a glass homogenizer.
# The homogenate was centrifuged for 10 min at 1000×g at 4° C. The supernatant was aspirated and transferred to polycarbonate tubes and centrifuged again for 10 min. at 3000×g, 4° C. The resulting supernatant was removed, and the fatty lipids on the side-wall of the tube were carefully wiped off.
# The pellet was resuspended in liver homogenate medium and the homogenization repeated twice. The final purified mitochondrial pellet was resuspended in medium. Protein concentration in the mitochondrial preparation was determined by the Bradford procedure.
# Approximately 1.5 mg mitochondria in 400 μl buffer was incubated with [^3H][Dmt^1]DALDA for 5-30 min at 37° C. The mitochondria were then centrifuged down and the amount of radioactivity determined in the mitochondrial fraction and buffer fraction. […] Thus [Dmt^1]DALDA is concentrated in mitochondria.
# Thus uptake of [Dmt^1, AtnDap^4]DALDA was not potential-dependent.
# To confirm that the mitochondrial targeting was not an artifact of the fluorophore, we also examined mitochondrial uptake of [^3H][Dmt^1]DALDA. Isolated mitochondria were incubated with [^3H][Dmt^1]DALDA and radioactivity determined in the mitochondrial pellet and supernatant.
# We next examined the effect of mitochondrial swelling on the accumulation of [Dmt^1, AtnDap^4]DALDA in mitochondria by using alamethicin to induce swelling and rupture of the outer membrane. […] Thus, [Dmt^1]DALDA is associated with mitochondrial membranes.
Molecule,Heart Rate Baseline ([1]; Baseline),Heart Rate Ischemia ([1]; first column),Heart Rate Ischemia ([1]; second column),Heart Rate Open chest ([1]; Open chest),Heart Rate Reperfusion ([1]; first column),Heart Rate Reperfusion ([1]; second column),"uptake of fluorescent peptide into Caco-2 cells (CLSM) (Caco-2 cells; 0.1 μM, 1 h, 37° C.)",subcellular distribution of fluorescence (Caco-2 cells),"reduction of uptake (fluorescence quenching) by FCCP pretreatment ([2]; FCCP 1.5 μM, mitochondria 0.35 mg/ml)",effect of alamethicin-induced mitochondrial swelling on uptake [2],"effect of alamethicin-induced mitochondrial swelling on uptake ([2]; listed as [Dmt^1, AtnDap^4]DALDA)",uptake on addition of mitochondria (fluorescence) ([2]; ex/em 320/420 nm),"incubation time after which uptake into Caco-2 cells was shown (Caco-2 cells; 0.1 μM, 37° C.)","distribution to mitochondria (overlap with TMRM) (Caco-2 cells; Caco-2, TMRM 25 nM)"
"N=C(N)NCCC[C@@H](NC(=O)[C@@H](N)Cc1ccccc1)C(=O)N[C@@H](Cc1ccccc1)C(=O)N[C@@H](CCCCN)C(N)=O [SS-20, Phe-D-Arg-Phe-Lys-NH2] (H-F[dR]FK-NH2; N-terminus assumed)",255 ± 5,191 ± 17,184 ± 15,211 ± 10,182 ± 16,183 ± 12,–,–,–,–,–,–,–,–
"Cc1cc(O)cc(C)c1C[C@H](N)C(=O)N[C@H](CCCNC(=N)N)C(=O)N[C@@H](Cc1ccccc1)C(=O)N[C@@H](CNS(=O)(=O)c1cccc2c(N(C)C)cccc12)C(N)=O [[Dmt^1,DnsDap^4]DALDA, Dmt-D-Arg-Phe-dnsDap-NH2] (H-[Dmt][dR]F[Dap](Dansyl)-NH2; N-terminus assumed)",–,–,–,–,–,–,confirmed the uptake,diffuse throughout the cytoplasm but was completely excluded from the nucleus,–,–,–,–,–,–
Dmt-D-Arg-Phe-atnDap-NH2 [SS-19],–,–,–,–,–,–,–,completely excluded from the nucleus,< 20%,retained to a large extent,only partially reversed,immediate quenching,15 min,demonstrated by the overlap
